ChEMBL document CHEMBL3407450, “Design of new hybrid template by linking quinoline, triazole and dihydroquinoline pharmacophoric groups: A greener approach to novel polyazaheterocycles as cytotoxic agents” (Bioorg Med Chem Lett, 2015)

Assays:
HepG2 = assay: Cytotoxicity against human HepG2 cells assessed as cell viability after 48 hrs by MTT assay; assay type: functional, cell-based; details: HepG2, 48 h
MCF7 = assay: Cytotoxicity against human MCF7 cells assessed as cell viability after 48 hrs by MTT assay; assay type: functional, cell-based; details: MCF7, 48 h
DU-145 = assay: Cytotoxicity against human DU145 cells assessed as cell viability after 48 hrs by MTT assay; assay type: functional, cell-based; details: DU-145, 48 h
A549 = assay: Cytotoxicity against human A549 cells assessed as cell viability after 48 hrs by MTT assay; assay type: functional, cell-based; details: A549, 48 h
[1] = biological target: 3',5'-cyclic-AMP phosphodiesterase 4D (Homo sapiens) (UniProt Q08499); assay: Inhibition of PDE4D (unknown origin) transfected into Sf9 cells at 30 uM by PDElight HTS cAMP phosphodiesterase assay
[2] = biological target: 3',5'-cyclic-AMP phosphodiesterase 4B (Homo sapiens) (UniProt Q07343); assay: Inhibition of PDE4B (unknown origin) transfected into Sf9 cells at 30 uM by PDElight HTS cAMP phosphodiesterase assay
Sequence of 3',5'-cyclic-AMP phosphodiesterase 4B (Homo sapiens) (Q07343 whole entry): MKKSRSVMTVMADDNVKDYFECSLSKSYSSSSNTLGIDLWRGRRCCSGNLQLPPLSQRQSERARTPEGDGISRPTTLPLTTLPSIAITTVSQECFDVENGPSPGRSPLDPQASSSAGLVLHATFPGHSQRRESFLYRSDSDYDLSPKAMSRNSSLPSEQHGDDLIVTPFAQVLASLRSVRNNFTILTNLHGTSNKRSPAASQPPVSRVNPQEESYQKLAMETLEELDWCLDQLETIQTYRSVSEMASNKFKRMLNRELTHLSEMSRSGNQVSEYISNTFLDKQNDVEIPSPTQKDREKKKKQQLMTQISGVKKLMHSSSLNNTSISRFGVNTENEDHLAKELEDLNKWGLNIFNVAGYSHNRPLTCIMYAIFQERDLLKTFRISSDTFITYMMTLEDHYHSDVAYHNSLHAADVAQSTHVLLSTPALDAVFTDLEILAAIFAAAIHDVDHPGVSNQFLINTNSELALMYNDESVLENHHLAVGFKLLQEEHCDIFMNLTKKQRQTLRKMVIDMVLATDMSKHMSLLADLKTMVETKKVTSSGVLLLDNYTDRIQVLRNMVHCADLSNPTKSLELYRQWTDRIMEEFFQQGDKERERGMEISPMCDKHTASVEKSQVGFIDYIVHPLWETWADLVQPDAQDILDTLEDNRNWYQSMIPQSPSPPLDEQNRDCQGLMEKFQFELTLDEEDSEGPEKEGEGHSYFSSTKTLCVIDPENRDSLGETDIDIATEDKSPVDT

Sequence of 3',5'-cyclic-AMP phosphodiesterase 4D (Homo sapiens) (Q08499 whole entry): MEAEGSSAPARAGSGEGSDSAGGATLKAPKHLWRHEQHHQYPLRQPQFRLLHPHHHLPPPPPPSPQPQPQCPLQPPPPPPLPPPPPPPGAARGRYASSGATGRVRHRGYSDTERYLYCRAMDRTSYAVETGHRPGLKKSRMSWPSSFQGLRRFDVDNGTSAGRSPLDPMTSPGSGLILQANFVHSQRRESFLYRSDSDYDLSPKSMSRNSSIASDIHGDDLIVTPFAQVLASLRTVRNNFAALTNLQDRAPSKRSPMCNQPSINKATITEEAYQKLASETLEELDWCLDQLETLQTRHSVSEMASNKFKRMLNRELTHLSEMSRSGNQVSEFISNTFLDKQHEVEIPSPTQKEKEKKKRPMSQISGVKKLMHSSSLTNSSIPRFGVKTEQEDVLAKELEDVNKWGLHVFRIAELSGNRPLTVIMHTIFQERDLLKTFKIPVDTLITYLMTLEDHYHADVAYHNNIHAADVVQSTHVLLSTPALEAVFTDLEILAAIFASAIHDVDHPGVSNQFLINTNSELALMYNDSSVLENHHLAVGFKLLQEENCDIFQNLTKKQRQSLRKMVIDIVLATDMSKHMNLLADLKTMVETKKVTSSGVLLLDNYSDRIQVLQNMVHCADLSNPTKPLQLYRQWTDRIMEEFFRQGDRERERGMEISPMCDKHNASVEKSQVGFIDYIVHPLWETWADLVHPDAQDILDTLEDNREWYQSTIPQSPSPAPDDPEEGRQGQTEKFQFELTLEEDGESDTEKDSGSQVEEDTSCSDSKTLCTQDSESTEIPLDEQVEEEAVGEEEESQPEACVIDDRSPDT

| Structure (SMILES) | IC50 (HepG2) [µM] | IC50 (MCF7) [µM] | IC50 (DU-145) [µM] | IC50 (A549) [µM] | inhibition [1] [%] | inhibition [2] [%] |
| --- | --- | --- | --- | --- | --- | --- |
| COc1ccc2c(c1)C(C)=CC(C)(C)N2Cc1cn(Cc2cc3cc(OC)ccc3nc2Cl)nn1 | 27.2 | 26.4 | 28.6 | 30.9 | – | – |
| COc1ccc2nc(Cl)c(Cn3cc(CN4c5ccccc5C(C)=CC4(C)C)nn3)cc2c1 | 41.2 | 38.7 | 34 | 33.4 | – | – |
| COc1ccc2nc(Cl)c(Cn3cc(CN4c5ccc(C)cc5C(C)=CC4(C)C)nn3)cc2c1 | 21.6 | 14.3 | 19.8 | 15.5 | 52 | 88 |
| COc1cccc2c1C(=O)c1c(O)c3c(c(O)c1C2=O)C[C@@](O)(C(=O)CO)C[C@@H]3O[C@H]1C[C@H](N)[C@H](O)[C@H](C)O1 [DOXORUBICIN] | 3.5 | 0.8 | 0.5 | 9.7 | – | – |
| CC1=CC(C)(C)N(Cc2cn(Cc3cc4cc(C)ccc4nc3Cl)nn2)c2ccccc21 | 23 | 30.6 | 31.3 | 29.4 | – | – |
| CC1=CC(C)(C)N(Cc2cn(Cc3cc4ccccc4nc3Cl)nn2)c2ccccc21 | 13.1 | 16.2 | 19.3 | 17.5 | – | – |
| CC1=CC(C)(C)N(Cc2cn(Cc3cc4ccc(C)cc4nc3Cl)nn2)c2ccccc21 | 26.2 | 10.8 | 27 | 11.1 | – | – |
